Ends that are not written are not given here.
Experiments:
mouse lungs = experiment: Intra-tracheal delivery of PTD5 streptavidin-Cy3 complexes into mouse lungs, two-photon microscopy; type: in vivo; settings: 50 μl of 200 μM, three hours post-injection, FIG. 3
Description: To determine if the PTDs can facilitate protein uptake by mouse lungs, the PTD5 streptavidin-Cy3 complexes were delivered into mouse lungs intra-tracheally. The treated mice were sacrificed three hours post-delivery and tissue from the lungs was scanned by two-photon microscopy. 50 μl of 200 μM solution of the PTD-5-β-Cy3 was injected intra-tracheally into mouse lungs. Three hours post-injection, the mice were sacrificed, and the lungs were analyzed by two photon confocal microscopy for internalization. A control peptide (Con.P)-Cy3 was used as a control.

human airway cells = experiment: Organelle distribution of PTD-5-avidin-β-gal, gradient ultracentrifugation and β-gal activity; type: cell-based; settings: 37° C., purified organelles, FIG. 5
Description: To test the distribution of PTD5 facilitating uptake into human airway cells, the ability of PTD5 to deliver β-gal protein to a variety of cell organelles was examined by separation of organelles using gradient ultra-centrifugation. PTD-5-avidin-β-gal and a control peptide, (Con.P)-avidin-β-gal, were added to the media bathing the airway cell cultures and incubated at 37° C. Three hours post-addition of the complexes, the cells were washed extensively and collected for organelle isolation by gradient ultracentrifugation. The purified cell organelles were tested for β-gal activity using a Galacto-light kit (Tropix, Inc.).

ΔF508 CFTR = experiment: Whole cell patch clamp of forskolin-stimulated currents; settings: primary human airway (HBE) cells, four hours treatment, 5-10 μM forskolin, 37° C.
Description: To increase the specificity of the method, a whole cell patch clamp method can be utilized to verify the SPQ data using PTD-5 ΔF508 NBD1/RD. Briefly, cells at 50% confluence are treated with PTD fusion peptide or adenovirus carrying ΔF508 NBD1/RD for four hours and subjected to whole cell patch clamp by standard methods. Currents are recorded at −60 mV and current-voltage relations are obtained before and after the cells are stimulated with 5-10 μM forskolin; all procedures are performed at 37° C. The bath solution contained (in mM) 150 NaCl, 2 MgCl2, 1 EGTA, 5 HEPES and 0.5 CaCl2 (pH=7.3). The pipette solution contains (in mM) 150 NaCl, 2 MgCl2, 5 HEPES and 2 CaCl2 (pH=7.3). Data is amplified using an Axopatch 200A patch-clamp amplifier and recorded to disk by a Digidata A/D interface for later analysis with pCLAMP8. The data is low-pass filtered and digitized at 1 kHz.

[1] = biological target: T1, interaction of Hdj2 and ΔF508 CFTR (Homo sapiens, UniProt P31689); experiment: Co-immunoprecipitation of Hdj2 with CFTR in KK cell lysate treated with fusion protein; type: binding
T1 construct: endogenous in cells; host or cells: KK bronchial epithelial cell line (lysate)
Description: To test whether PTD-5 ΔF508NBD1-RD could inhibit interaction of Hdj2 and ΔF508 CFTR, KK cells, a bronchial epithelial cell line carrying the ΔF508 mutation, were lysed with a lysis buffer, the lysate was treated with PTD5-NBD1-ΔF-RD and equal amount lysates were used to perform immunoprecipitation (IP) using CFTR antibodies, M3A7 (1 μg) and L12B4 (1 μg) and protein […] beads. The precipitants were washed five times with lysis buffer. Hjd2 that co-precipitated with CFTR was fractionated by SDS-PAGE, transferred to PVDF membrane and detected by immunoblotting (IB).

[2] = test system: primary human airway epithelial cells (HBE144), polarized canine kidney cells (MDCK) and other cell types; experiment: PTD-5-facilitated delivery of avidin-β-gal complex, X-gal staining; type: cell-based; settings: 150 nM PTD-5-avidin-β-gal complex, three hours, FIG. 1
Description: (§1) To determine whether the PTD5 polypeptide (RRQRRTSKLMKR) was able to facilitate uptake into different cell types including differentiated airway epithelial cells and Calu3 cells, the ability of PTD5 to deliver avidin-β-Gal and streptavidin Cy3 to human airway cells and Calu3 cells was examined.
PTD-5 is a positively charged transduction peptide, which was biotinylated so that it can be coupled to avidin marker complexes. 150 nM of the PTD-5-avidin-β-gal complex was added to the cell culture media of various cell lines (FIG. 1). Three hours post addition of the complex, the indicated cells were fixed and stained with X-gal.

[3] = test system: Calu3 cells and human bronchial epithelial cells (KK); experiment: PTD-5-facilitated delivery of streptavidin-Cy3, confocal microscopy; type: cell-based; settings: three hours, 37° C., FIG. 2
Description: as §1
PTD-5 was also coupled to streptavidin-Cy 3, which was added to Calu3 cell and human bronchial epthelial cells (KK) cultures at 37° C. (FIG. 2). A peptide (Con.P)-strepavdin-Cy3 was used as a control. Three hours post addition of the PTD-5-streptavidin-Cy 3, the intracellular localization of the red (Cy 3) fluorescent signals were visualized by confocal microscopy. The nuclei were counterstained using cytox green.

## ARPLEHGSDKAT (control, Con P) [reference compound]
Mouse lungs
  Cy3 signal in lungs: weak signals
Human airway cells
  delivery of avidin-β-gal complex to cell organelles (β-gal activity): did not localize to any of the organelles

## PTD5-ΔF508 NBD1/RD fusion protein: inline fusion of PTD-5 with the ΔF508 CFTR NBD1-RD region, histidine tag, expressed in E. coli, nickel column purified
ΔF508 CFTR
  forskolin-stimulated whole cell currents: forskolin-stimulated currents typical of those associated with CFTR
[1]; listed as PTD5 ΔF508NBD1-RD fusion protein
  interaction of Hdj2 with ΔF508 CFTR (co-immunoprecipitation): capable of inhibiting the interaction of Hdj2 with the ΔF508 CFTR protein
[1]; listed as PTD-5-ΔF508 NBD1-RD
  interaction of Hdj2 with ΔF508 CFTR (co-immunoprecipitation): disrupts ΔF508 CFTR interaction with chaperone Hdj2

## RRQRRTSKLMKR (also: biotinylated (position not given here)) [PTD-5, biotinylated for coupling to avidin marker complexes]
[2]
  delivery of avidin-β-gal complex into cells (X-gal staining): able to deliver the avidin-β-gal complex
[3]
  delivery of streptavidin-Cy3 complex into cells (confocal microscopy): delivered the streptavidin-Cy3 complex
Mouse lungs
  Cy3 signal in lungs: significant Cy3 signal
Human airway cells
  delivery of avidin-β-gal complex to cell organelles (β-gal activity): able to deliver the avidin-β-gal complex to ER, Golgi, mitochondria, and nuclei
